Experimental data from PubChem BioAssay (NCI).
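These data come from cells grown in 96-well plates and exposed to compound for 48 hours at five concentrations. GI50: concentration for 50% inhibition of growth. At the TGI there is no net growth.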

Assays:
Assay in all cases: inhibition of tumour cell growth, NCI panel, 48 h
[1] = system: HL-60(TB) leukemia
[2] = system: HT29 colon
[3] = system: KM12 colon
[4] = system: MDA-N
[5] = system: SF-268 CNS
[6] = system: SF-539 CNS
[7] = system: SK-MEL-28 melanoma
[8] = system: SNB-75 CNS
[9] = system: TK-10 renal
[10] = system: HCC-2998 colon

Row | Structure (SMILES) | TGI [1] [µM] | TGI [2] [µM] | TGI [3] [µM] | TGI [4] [µM] | TGI [5] [µM] | TGI [6] [µM] | TGI [7] [µM] | TGI [8] [µM] | TGI [9] [µM] | TGI [10] [µM] | GI50 [8] [µM]
1 | Cc1nc(-c2ccc([N+](=O)[O-])cc2)cn2c1nc1ccccc12 | > 100 | > 100 | > 100 | > 100 | > 100 | > 100 | > 100 | 69 | > 100 | – | –
2 | COCOC1/C=C/CCCCC2=C(C)C=C(C1)O2 (stereo unspecified) | > 100 | > 100 | > 100 | > 100 | > 100 | > 100 | > 100 | > 100 | > 100 | > 100 | –
3 | Cc1c(F)c(N)c2c(=O)cc(-c3ccc(NC(=O)CN(C)C)c(F)c3)oc2c1F | 46.4 | > 100 | > 100 | > 100 | > 100 | > 100 | > 100 | > 100 | > 100 | > 100 | 32.9
4 | COc1cc(/C=C2/C(=O)N(C(=O)c3ccccc3O)N=C2C)cc(OC)c1OC | > 60.3 | > 100 | > 100 | > 100 | > 100 | 6.39 | > 100 | > 100 | > 100 | > 87.8 | –
5 | Cc1c(-c2nc3ccccc3[nH]2)c(=O)n(-c2ccccc2)n1C | > 100 | > 100 | > 100 | > 100 | > 100 | > 100 | > 100 | > 100 | > 100 | > 100 | –
6 | O=C(/C=C/c1ccc(O)c([N+](=O)[O-])c1)CC(=O)/C=C/c1ccc(O)c([N+](=O)[O-])c1 | 44.6 | > 100 | 97.6 | > 100 | > 100 | > 100 | > 100 | > 100 | > 100 | – | –
7 | Cc1nnc(Nc2ccccc2)o1 | > 100 | > 100 | > 100 | > 100 | > 100 | > 100 | > 100 | > 100 | > 100 | – | –
8 | O=C(O)c1c2c(cc3c1CC1(Cc4ccccc4C1)C3)CCC2 | > 100 | > 100 | > 100 | > 100 | > 100 | > 100 | > 100 | > 100 | > 100 | > 100 | –
9 | NCC1CCN(c2nc3ccccc3c3c2CCCC3)CC1 | 8.13 | 6.22 | 15.9 | 7.92 | 22.7 | 11.3 | 12 | 22.2 | 25.9 | 3.46 | –
10 | CN(C)CCCOC(=O)C(c1ccccc1)C1(O)CCSCC1 (stereo unspecified) | > 100 | > 100 | > 100 | > 100 | > 100 | > 100 | > 100 | > 100 | > 100 | > 100 | –
11 | COc1cccc(-c2cc(=O)c3ccccc3o2)c1N | > 100 | > 100 | > 100 | > 100 | > 100 | > 100 | > 100 | > 100 | > 100 | > 100 | –
12 | CN1C(=O)N(c2ccccc2)C2(CCN(CC3COc4ccccc4O3)CC2)C1=O (stereo unspecified) | > 100 | > 100 | > 100 | > 100 | > 100 | > 100 | > 100 | – | > 100 | > 100 | –
13 | Cc1nc2c(sc(=S)n2-c2ccccc2)c2nc3ncccc3n12 | > 100 | > 100 | > 100 | > 100 | > 100 | – | > 100 | 64.5 | > 100 | > 100 | –
14 | CCOP(=O)(OCC)/C(C#N)=C/c1cnc(-c2ccccc2)[nH]1 | > 100 | > 100 | > 100 | > 100 | > 100 | > 100 | > 100 | > 100 | – | > 100 | –
15 | CC(C)(C)c1ccc2c(c1)CNCCNCc1cc(C(C)(C)C)ccc1OCC1(CO2)COc2ccc(C(C)(C)C)cc2CNCCNCc2cc(C(C)(C)C)ccc2OC1 | 0.475 | 0.472 | 0.933 | 2.14 | 5.12 | 2.76 | 3.05 | 2.96 | 3.32 | 0.786 | –
16 | COc1ccc(-c2cc(-c3ccco3)c(C#N)c(=S)n2C2OC(COC(C)=O)C(OC(C)=O)C(OC(C)=O)C2OC(C)=O)cc1 (stereo unspecified) | 20.7 | 14.8 | 33.4 | 19.2 | 23.5 | 4.56 | 12.7 | 17.7 | 45.1 | 48.4 | –
17 | Cc1ccc([C@@H]2[C@@H](C(=O)c3ccccn3)[C@H](c3ccc(C)cc3)C[C@](O)(c3ccccn3)[C@H]2C(=O)c2ccccn2)cc1 | 6.92 | > 100 | > 100 | > 28.5 | > 100 | > 100 | > 100 | > 100 | > 100 | > 100 | –
18 | O=C(O)CSc1nnc(COc2ccc(Cl)cc2)n1-c1ccccc1 | > 100 | > 100 | > 100 | > 100 | > 100 | – | > 100 | > 100 | > 100 | > 100 | –
19 | COc1cc(O)c(/C=N/N=C(\N)NO)c(OC)c1 | > 10 | > 10 | > 10 | > 10 | > 10 | > 10 | > 10 | > 10 | > 10 | > 10 | –
20 | OCCCCCNc1c2ccccc2nc2ccccc12 | > 39 | 20.7 | 14.3 | 7.42 | 11.4 | 9.05 | 16.9 | 12.5 | 20.3 | 3.36 | –
21 | CN1C(=O)C2C(=O)N(Cc3ccccc3)CC(=O)N2c2cccnc21 (stereo unspecified) | > 100 | > 100 | > 100 | > 100 | > 100 | > 100 | – | > 100 | > 100 | – | –
22 | Nc1ccc2nc(-c3ccccn3)c(-c3ccccn3)nc2c1 | > 100 | – | > 100 | > 100 | > 100 | > 100 | > 100 | > 100 | > 100 | > 100 | –
